ChEMBL document CHEMBL3044790, “Evaluation of antiasthmatic activity of 7,8,9,10-tetrahydroazepino[2,1-b]quinazolin-12(6H)-one in combination with ambroxol in Guinea pigs” (2012)
The source made the active and inactive calls. The rule behind the calls is not given here.

Experiments:
Cavia porcellus [1] = experiment: Antiasthmatic activity in Cavia porcellus Hartley (guinea pig) ovalbumin-induced hyperresponsive model assessed as reduction in total lymphocyte count in BAL at 20 mg/kg, ip qd administered for 7 days challenged 30 min post last dose on day 7; assay type: functional, organism-based; parameters: dose 20 mg/kg
Cavia porcellus [2] = experiment: Antiasthmatic activity in Cavia porcellus Hartley (guinea pig) ovalbumin-induced hyperresponsive model assessed as reduction in TBARS level in per gram of lung tissue at 20 mg/kg, ip qd administered for 7 days challenged 30 min post last dose on day 7 (reference value: 0.291 +/- 0.039 nmol/g); assay type: functional; conditions: route intraperitoneal
Cavia porcellus [3] = experiment: Antiasthmatic activity in Cavia porcellus Hartley (guinea pig) ovalbumin-induced hyperresponsive model assessed as reduction in TBARS level in BAL at 20 mg/kg, ip qd administered for 7 days challenged 30 min post last dose on day 7 (reference value: 0.471 +/- 0.08 nmol/ml); assay type: functional; conditions: route intraperitoneal
Cavia porcellus [4] = experiment: (§1) Antiasthmatic activity in Cavia porcellus Hartley (guinea pig) ovalbumin-induced hyperresponsive model assessed as decrease in nitrate/nitrite level in per gram of lung tissue at 20 mg/kg, ip qd administered for 7 days challenged 30 min post last dose on day 7 by griess assay (reference value: 195.55 +/- 8.34 umol/g); assay type: functional; conditions: route intraperitoneal
Cavia porcellus [5] = experiment: Antiasthmatic activity in Cavia porcellus Hartley (guinea pig) ovalbumin-induced hyperresponsive model assessed as cough latency at 10 mg/kg, ip qd administered for 7 days challenged 30 min post last dose on day 7 (reference value: 4.75 +/- 0.86 min); assay type: functional; conditions: route intraperitoneal
Cavia porcellus [6] = experiment: Antiasthmatic activity in Cavia porcellus Hartley (guinea pig) ovalbumin-induced hyperresponsive model assessed as reduction in eosinophil count in BAL at 20 mg/kg, ip qd administered for 7 days challenged 30 min post last dose on day 7; assay type: functional, organism-based; parameters: dose 20 mg/kg
Cavia porcellus [7] = experiment: Antiasthmatic activity in Cavia porcellus Hartley (guinea pig) ovalbumin-induced hyperresponsive model assessed as cough latency at 20 mg/kg, ip qd administered for 7 days challenged 30 min post last dose on day 7 (reference value: 4.75 +/- 0.86 min); assay type: functional; conditions: route intraperitoneal
Cavia porcellus [8] = experiment: Antiasthmatic activity in Cavia porcellus Hartley (guinea pig) ovalbumin-induced hyperresponsive model assessed as increase in GSH level in per gram of lung tissue at 20 mg/kg, ip qd administered for 7 days challenged 30 min post last dose on day 7 (reference value: 15.175 +/- 1.809 umol/g); assay type: functional; conditions: route intraperitoneal
Bronchus smooth muscle = experiment: Inhibition of ovalbumin-induced constriction of Cavia porcellus (guinea pig) bronchial smooth muscle; assay type: functional
Cavia porcellus [9] = experiment: Antiasthmatic activity in Cavia porcellus Hartley (guinea pig) ovalbumin-induced hyperresponsive model assessed as decrease in nitrate/nitrite level in BAL at 20 mg/kg, ip qd administered for 7 days challenged 30 min post last dose on day 7 by griess assay (reference value: 70.16 +/- 6.20 umol/ml); assay type: functional; conditions: route intraperitoneal
Cavia porcellus [10] = experiment: Antiasthmatic activity in Cavia porcellus Hartley (guinea pig) ovalbumin-induced hyperresponsive model assessed as increase in GSH level in BAL at 20 mg/kg, ip qd administered for 7 days challenged 30 min post last dose on day 7 (reference value: 28.95 +/- 3.66 umol/ml); assay type: functional; conditions: route intraperitoneal
Cavia porcellus [11] = experiment: Antiasthmatic activity in Cavia porcellus Hartley (guinea pig) ovalbumin-induced hyperresponsive model assessed as increase in GSH level in per gram of lung tissue at 100 mg/kg, ip qd administered for 7 days challenged 30 min post last dose on day 7 (reference value: 15.175 +/- 1.809 umol/g); assay type: functional; conditions: route intraperitoneal
Cavia porcellus [12] = experiment: Antiasthmatic activity in Cavia porcellus Hartley (guinea pig) ovalbumin-induced hyperresponsive model assessed as decrease in nitrate/nitrite level in BAL at 100 mg/kg, ip qd administered for 7 days challenged 30 min post last dose on day 7 by griess assay (reference value: 70.16 +/- 6.20 umol/ml); assay type: functional; conditions: route intraperitoneal
Cavia porcellus [13] = experiment: Antiasthmatic activity in Cavia porcellus Hartley (guinea pig) ovalbumin-induced hyperresponsive model assessed as cough latency at 50 mg/kg, ip qd administered for 7 days challenged 30 min post last dose on day 7 (reference value: 4.75 +/- 0.86 min); assay type: functional; conditions: route intraperitoneal
Cavia porcellus [14] = experiment: Antiasthmatic activity in Cavia porcellus Hartley (guinea pig) ovalbumin-induced hyperresponsive model assessed as reduction in eosinophil count in BAL at 100 mg/kg, ip qd administered for 7 days challenged 30 min post last dose on day 7; assay type: functional, organism-based; parameters: dose 100 mg/kg
Cavia porcellus [15] = experiment: Antiasthmatic activity in Cavia porcellus Hartley (guinea pig) ovalbumin-induced hyperresponsive model assessed as increase in GSH level in BAL at 100 mg/kg, ip qd administered for 7 days challenged 30 min post last dose on day 7 (reference value: 28.95 +/- 3.66 umol/ml); assay type: functional; conditions: route intraperitoneal
Cavia porcellus [16] = experiment: Antiasthmatic activity in Cavia porcellus Hartley (guinea pig) ovalbumin-induced hyperresponsive model assessed as reduction in TBARS level in per gram of lung tissue at 100 mg/kg, ip qd administered for 7 days challenged 30 min post last dose on day 7 (reference value: 0.291 +/- 0.039 nmol/g); assay type: functional; conditions: route intraperitoneal
Cavia porcellus [17] = experiment: Antiasthmatic activity in Cavia porcellus Hartley (guinea pig) ovalbumin-induced hyperresponsive model assessed as reduction in total lymphocyte count in BAL at 50 mg/kg, ip qd administered for 7 days challenged 30 min post last dose on day 7; assay type: functional, organism-based; parameters: dose 50 mg/kg
Cavia porcellus [18] = experiment: Antiasthmatic activity in Cavia porcellus Hartley (guinea pig) ovalbumin-induced hyperresponsive model assessed as cough latency at 100 mg/kg, ip qd administered for 7 days challenged 30 min post last dose on day 7 (reference value: 4.75 +/- 0.86 min); assay type: functional; conditions: route intraperitoneal
Cavia porcellus [19] = experiment: as §1, with “100” for “20”; assay type: functional; conditions: route intraperitoneal
Cavia porcellus [20] = experiment: Antiasthmatic activity in Cavia porcellus Hartley (guinea pig) ovalbumin-induced hyperresponsive model assessed as reduction in total lymphocyte count in BAL at 100 mg/kg, ip qd administered for 7 days challenged 30 min post last dose on day 7; assay type: functional, organism-based; parameters: dose 100 mg/kg
Cavia porcellus [21] = experiment: Antiasthmatic activity in Cavia porcellus Hartley (guinea pig) ovalbumin-induced hyperresponsive model assessed as reduction in TBARS level in BAL at 100 mg/kg, ip qd administered for 7 days challenged 30 min post last dose on day 7 (reference value: 0.471 +/- 0.08 nmol/ml); assay type: functional; conditions: route intraperitoneal
Cavia porcellus [22] = experiment: Antiasthmatic activity in Cavia porcellus Hartley (guinea pig) ovalbumin-induced hyperresponsive model assessed as reduction in eosinophil count in BAL at 50 mg/kg, ip qd administered for 7 days challenged 30 min post last dose on day 7; assay type: functional, organism-based; parameters: dose 50 mg/kg

## O=c1c2ccccc2nc2n1CCCCC2
Cavia porcellus [1]
  Activity: Active
Cavia porcellus [2]
  Activity: 0.094 nmol
Cavia porcellus [3]
  Activity: 0.199 nmol/mL
Cavia porcellus [4]
  Activity: 81.777 µmol
Cavia porcellus [5]
  Time: 15.67 min
Cavia porcellus [6]
  Activity: Active
Cavia porcellus [7]
  Time: 22.32 min
Cavia porcellus [8]
  Activity: 66.67 µmol
Bronchus smooth muscle
  inhibition: Dose-dependent effect
Cavia porcellus [9]
  Activity: 48.945 µmol/mL
Cavia porcellus [10]
  Activity: 71.67 µmol/mL

## Nc1c(Br)cc(Br)cc1CN[C@H]1CC[C@H](O)CC1 [AMBROXOL]
Cavia porcellus [11]
  Activity: 50.28 µmol
Cavia porcellus [12]
  Activity: 49.075 µmol/mL
Cavia porcellus [13]
  Time: 5.627 min
Cavia porcellus [14]
  Activity: Active
Cavia porcellus [15]
  Activity: 56.83 µmol/mL
Cavia porcellus [16]
  Activity: 0.146 nmol
Cavia porcellus [17]
  Activity: Active
Cavia porcellus [18]
  Time: 13.17 min
Cavia porcellus [19]
  Activity: 134.67 µmol
Cavia porcellus [20]
  Activity: Active
Cavia porcellus [21]
  Activity: 0.325 nmol/mL
Cavia porcellus [22]
  Activity: Active
